Source: ChEMBL document CHEMBL1201862, “PubChem BioAssay data set” (2004)
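Following 48 hours of exposure in 96-well plates, responses at five concentrations were used to interpolate endpoints linearly. Abbreviation: GI50, concentration required for 50% inhibition of growth.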 Calls of active or inactive are those of the source. Rule as the data show it: active = GI50 up to about 1.1 µM and inactive = higher.

Tests used:
Test in all cases: NCI-60 cell line screen, 48 h
SK-OV-3 = system: SK-OV-3
UACC-257 = system: UACC-257
SF-539 = system: SF-539
RXF 393 = system: RXF 393
SK-MEL-5 = system: SK-MEL-5
NCI-H226 = system: NCI-H226
OVCAR-4 = system: OVCAR-4
LOX IMVI = system: LOX IMVI
UO-31 = system: UO-31
UACC-62 = system: UACC-62
RPMI-8226 = system: RPMI-8226
SNB-19 = system: SNB-19
HCT-116 = system: HCT-116
OVCAR-8 = system: OVCAR-8
Malme-3M = system: Malme-3M
MOLT-4 = system: MOLT-4
TK-10 = system: TK-10
K562 = system: K562
CCRF-CEM = system: CCRF-CEM
NCI-H23 = system: NCI-H23

Measured: GI50

CCOC(=O)C1=C(C)NC(=O)N([N+](=O)[O-])C1c1ccccc1C(F)(F)F (stereo not given)
inactive: SK-OV-3 > 100 µM | UACC-257 > 100 µM | SF-539 28 µM | RXF 393 61 µM | SK-MEL-5 42.3 µM | NCI-H226 > 100 µM | OVCAR-4 27.2 µM | LOX IMVI 31 µM | UO-31 > 100 µM | UACC-62 49.4 µM | RPMI-8226 23.4 µM | SNB-19 > 100 µM | HCT-116 35.7 µM | OVCAR-8 69.7 µM | Malme-3M 24.3 µM | MOLT-4 > 100 µM | TK-10 98.2 µM | K562 72.6 µM | CCRF-CEM 26.6 µM | NCI-H23 > 100 µM

CNC(=O)OCC1=C(COC(=O)NC)CN(c2ccc(OC)cc2)C1
inactive: SK-OV-3 > 100 µM | UACC-257 > 100 µM | SF-539 > 100 µM | RXF 393 > 100 µM | SK-MEL-5 > 100 µM | NCI-H226 4.2 µM | OVCAR-4 > 100 µM | LOX IMVI > 100 µM | UO-31 80.9 µM | UACC-62 > 100 µM | RPMI-8226 > 100 µM | SNB-19 > 100 µM | HCT-116 > 100 µM | OVCAR-8 > 100 µM | Malme-3M > 100 µM | MOLT-4 > 100 µM | TK-10 85.7 µM | K562 > 100 µM | CCRF-CEM > 100 µM | NCI-H23 > 100 µM

COc1ccc([C@H]2c3cc4c(cc3OC(O)(CO)[C@H]2C(=O)O)OCO4)c(OC)c1.COc1ccc([C@H]2c3cc4c(cc3OC3(O)COC(=O)[C@@H]23)OCO4)c(OC)c1 (stereo not given in full)
inactive: SK-OV-3 > 100 µM | UACC-257 > 100 µM | SF-539 > 100 µM | RXF 393 > 100 µM | SK-MEL-5 > 100 µM | NCI-H226 > 100 µM | OVCAR-4 > 100 µM | LOX IMVI 95.5 µM | UO-31 > 100 µM | UACC-62 41.5 µM | RPMI-8226 41.9 µM | SNB-19 > 100 µM | HCT-116 > 100 µM | OVCAR-8 > 100 µM | Malme-3M > 100 µM | MOLT-4 61.5 µM | TK-10 > 100 µM | K562 71.1 µM | CCRF-CEM 37.3 µM | NCI-H23 > 100 µM

CC1(C)N=C(c2ccccc2)SC12S[C@@H]1CCCC[C@H]1S2
inactive: SK-OV-3 > 100 µM | UACC-257 41.5 µM | SF-539 > 100 µM | RXF 393 > 100 µM | SK-MEL-5 17.4 µM | NCI-H226 > 100 µM | OVCAR-4 > 100 µM | LOX IMVI > 100 µM | UO-31 > 100 µM | UACC-62 > 100 µM | RPMI-8226 32.2 µM | SNB-19 13.2 µM | HCT-116 > 100 µM | OVCAR-8 > 100 µM | Malme-3M 56.2 µM | MOLT-4 63.8 µM | TK-10 > 100 µM | K562 > 100 µM | CCRF-CEM > 100 µM | NCI-H23 14.7 µM

O=C1c2cc3c(cc2CC1Cc1ccc2c(c1)CCC2)CCC3 (stereo not given)
inactive: SK-OV-3 85.1 µM | UACC-257 87.7 µM | SF-539 33.3 µM | RXF 393 57.7 µM | SK-MEL-5 57.8 µM | NCI-H226 24.2 µM | OVCAR-4 82.6 µM | LOX IMVI 66.1 µM | UO-31 > 100 µM | UACC-62 52 µM | RPMI-8226 40.5 µM | SNB-19 34.3 µM | HCT-116 38.6 µM | OVCAR-8 81.7 µM | Malme-3M 79.6 µM | MOLT-4 36.6 µM | TK-10 > 100 µM | K562 69.5 µM | CCRF-CEM 44.6 µM | NCI-H23 44.7 µM
